# Source: patent publication US10358453B2, “Antiviral compounds” (priority 2015, dated 2019)
# Assays:
# recombinant RSV complex = recombinant RSV complex (Human respiratory syncytial virus A, UniProt P28887); test: RSV polymerase inhibition assay; format: biochemical; details: 10 nM recombinant RSV complex, 2 h at 30° C.; Table E = <1 μM, Table F = <50 μM; read-out: IC50
# Experimental: Standard RSV polymerase assays were conducted in the presence of 10 nM recombinant RSV complex in a reaction buffer containing Tris-HCl pH7.5, 6 mM MgCl2, and other additives and substrates including RNA oligonucleotides and radionucleotides. Standard reactions were incubated in 96-well plate format for 2 h at 30° C., in the presence of increasing concentration of inhibitor. The reaction was stopped with 90 μL of 0.1M EDTA, and the reaction product was transferred to a “reading” 96-well plate. After washing of the plate, radiolabeled RNA products were detected according to standard procedures with a Trilux Topcount scintillation counter. The compound concentration at which the enzyme-catalyzed rate was reduced by 50% (IC50) was calculated by fitting the data to a non-linear regression (sigmoidal).
# [1] = Cytotoxicity determination (CCK-8, without addition of virus); format: cell-based; details: human, HEp-2 cells (uninfected), no virus, Table C = greater than 100 μM, Table D = equal to or less than 100 μM and greater than 10 μM
# Experimental: CPE reduction assays are performed as described by Sidwell and Huffman et al., Appl. Microbiol. (1971) 22(5):797-801 with slight modifications. HEp-2 cells (ATCC#, CCL-23) are seeded at a density of 1,500 cells/30 μL/well into the 384-well cell plate(s) (Corning#3701) one day prior to the assay. Compounds are added into 384-well cell plates by Labcyte POD 810 Plate Assembler system. Each of the test compounds is provided to duplicate wells of a 384-well cell plate at final concentrations starting from 100 μM or 1 μM using 1/3 stepwise dilutions for 9 points. Quick-thaw Respiratory Syncytial Virus (RSV) long strain (ATCC#VR-26) stock in a 37° C. water bath. Place on ice until ready to use. Viruses are diluted to the concentration of 100 TCID50/30 μL with medium and 30 μl diluted RSV are added into related wells of 384-well cell plates. For each plate, sixteen wells are set aside as uninfected, untreated cell controls (CC), and nine wells per test plate receive virus only as a control for virus replication (VC). The final DMSO concentration of all wells is 1%. Place the plates at 37° C., 5% CO2 for 5 days.
# In order to determine the compound cytotoxicity, in parallel, each of the compounds is applied to duplicate wells in a 384-well cell plate at serial final concentrations starting from 100 μM using ½ stepwise dilutions for 7 points without addition of virus. Incubate the cells at 37° C., 5% CO2 for 5 days. Add 6 μL CCK-8 into each well and incubate in a CO2 incubator at 37° C. for 3-4 h. Read the plates to obtain the optical densities which are used to calculate 50% cytotoxicity concentration (CC50).
# [2] = system: RSV subgenomic replicon 395 HeLa and APC126; test: RSV subgenomic replicon assay (Renilla luciferase); format: cell-based; details: human respiratory syncytial virus; RSV replicon cells (395 HeLa 7 days or APC126 3 days); Table G = less than 1 μM, Table H = equal to or higher than 1 μM and less than 50 μM
# Description: The RSV subgenomic replicon 395 HeLa and APC126 were licensed from Apath (Brooklyn, N.Y.) and were originally developed by Dr. Mark Meeples of Center for Vaccines & Immunity, the Research Institute at Nationwide Children's Hospital in Columbus, Ohio. To generate subgenomic RSV replicon, three glycoprotein genes, those for SH, G, and F, from a full-length recombinant GFP-expressing (rg) RSV antigenomic cDNA were deleted. In their place, a blasticidin S deaminase (bsd) gene was inserted. Through multiple steps, the RSV replicon was established in HeLa cells (395 Hela) or BHK cells (APC126). Both 395 HeLa and APC126 cells were cultured in Dulbecco's Modified Eagle Medium (DMEM) containing 4500 mg/L D-glucose, L-glutamine, and 110 mg/L sodium pyruvate (Invitrogen, Cat. #11995-040). The medium was further supplemented with 10% (v/v) fetal bovine serum (FBS) (Mediatech, Cat. #35-010-CV), 1% (v/v) penicillin/streptomycin (Mediatech, Cat. #30-002-CI), and 10 μg/mL of Blasticidin (BSD) (Invivogen, Cat. code ant-bl-1). Cells were maintained at 37° C. in a humidified 5% CO2 atmosphere.
# Determination of 50% inhibitory concentration (EC50), 90% inhibitory concentration (EC90) and 50% cytotoxic concentration (CC50) in RSV replicon cells were performed by the following procedure. On the first day, 5000 RSV replicon cells per well were plated in a 96-well plate. On the following day, compounds to be tested were solubilized in 100% DMSO to 100X the desired final testing concentration. Each compound was serially diluted (1:3) up to 9 distinct concentrations. Compounds in 100% DMSO were reduced to 10% (v/v) DMSO by diluting 1:10 in cell culture media. A 10 μL sample of the compounds diluted to 10% (v/v) DMSO with cell culture media was used to treat the RSV replicon cells in 96-well format. The final DMSO concentration was 1% (v/v). Cells were incubated with compounds for 7 days (for 395Hela) or 3 days (for APC126) at 37° C. in a 5% CO2 atmosphere. In each assay, positive control that was previously characterized in the RSV replicon assay was included.
# The Renilla Luciferase Assay System (Promega, Cat. #E2820) was used to measure anti-RSV replicon activity. Assay plates were set up as stated above. Luminescence was recorded using a Perkin Elmer multilabel counter Victor3V. EC50, the concentration of the drug required for reducing RSV replicon RNA by 50% in relation to the untreated cell control value, was calculated from the plot of percentage reductions of the […] against the drug concentrations using the Microsoft Excel forecast function.
# recombinant RSV complex, sequence (P28887 whole entry): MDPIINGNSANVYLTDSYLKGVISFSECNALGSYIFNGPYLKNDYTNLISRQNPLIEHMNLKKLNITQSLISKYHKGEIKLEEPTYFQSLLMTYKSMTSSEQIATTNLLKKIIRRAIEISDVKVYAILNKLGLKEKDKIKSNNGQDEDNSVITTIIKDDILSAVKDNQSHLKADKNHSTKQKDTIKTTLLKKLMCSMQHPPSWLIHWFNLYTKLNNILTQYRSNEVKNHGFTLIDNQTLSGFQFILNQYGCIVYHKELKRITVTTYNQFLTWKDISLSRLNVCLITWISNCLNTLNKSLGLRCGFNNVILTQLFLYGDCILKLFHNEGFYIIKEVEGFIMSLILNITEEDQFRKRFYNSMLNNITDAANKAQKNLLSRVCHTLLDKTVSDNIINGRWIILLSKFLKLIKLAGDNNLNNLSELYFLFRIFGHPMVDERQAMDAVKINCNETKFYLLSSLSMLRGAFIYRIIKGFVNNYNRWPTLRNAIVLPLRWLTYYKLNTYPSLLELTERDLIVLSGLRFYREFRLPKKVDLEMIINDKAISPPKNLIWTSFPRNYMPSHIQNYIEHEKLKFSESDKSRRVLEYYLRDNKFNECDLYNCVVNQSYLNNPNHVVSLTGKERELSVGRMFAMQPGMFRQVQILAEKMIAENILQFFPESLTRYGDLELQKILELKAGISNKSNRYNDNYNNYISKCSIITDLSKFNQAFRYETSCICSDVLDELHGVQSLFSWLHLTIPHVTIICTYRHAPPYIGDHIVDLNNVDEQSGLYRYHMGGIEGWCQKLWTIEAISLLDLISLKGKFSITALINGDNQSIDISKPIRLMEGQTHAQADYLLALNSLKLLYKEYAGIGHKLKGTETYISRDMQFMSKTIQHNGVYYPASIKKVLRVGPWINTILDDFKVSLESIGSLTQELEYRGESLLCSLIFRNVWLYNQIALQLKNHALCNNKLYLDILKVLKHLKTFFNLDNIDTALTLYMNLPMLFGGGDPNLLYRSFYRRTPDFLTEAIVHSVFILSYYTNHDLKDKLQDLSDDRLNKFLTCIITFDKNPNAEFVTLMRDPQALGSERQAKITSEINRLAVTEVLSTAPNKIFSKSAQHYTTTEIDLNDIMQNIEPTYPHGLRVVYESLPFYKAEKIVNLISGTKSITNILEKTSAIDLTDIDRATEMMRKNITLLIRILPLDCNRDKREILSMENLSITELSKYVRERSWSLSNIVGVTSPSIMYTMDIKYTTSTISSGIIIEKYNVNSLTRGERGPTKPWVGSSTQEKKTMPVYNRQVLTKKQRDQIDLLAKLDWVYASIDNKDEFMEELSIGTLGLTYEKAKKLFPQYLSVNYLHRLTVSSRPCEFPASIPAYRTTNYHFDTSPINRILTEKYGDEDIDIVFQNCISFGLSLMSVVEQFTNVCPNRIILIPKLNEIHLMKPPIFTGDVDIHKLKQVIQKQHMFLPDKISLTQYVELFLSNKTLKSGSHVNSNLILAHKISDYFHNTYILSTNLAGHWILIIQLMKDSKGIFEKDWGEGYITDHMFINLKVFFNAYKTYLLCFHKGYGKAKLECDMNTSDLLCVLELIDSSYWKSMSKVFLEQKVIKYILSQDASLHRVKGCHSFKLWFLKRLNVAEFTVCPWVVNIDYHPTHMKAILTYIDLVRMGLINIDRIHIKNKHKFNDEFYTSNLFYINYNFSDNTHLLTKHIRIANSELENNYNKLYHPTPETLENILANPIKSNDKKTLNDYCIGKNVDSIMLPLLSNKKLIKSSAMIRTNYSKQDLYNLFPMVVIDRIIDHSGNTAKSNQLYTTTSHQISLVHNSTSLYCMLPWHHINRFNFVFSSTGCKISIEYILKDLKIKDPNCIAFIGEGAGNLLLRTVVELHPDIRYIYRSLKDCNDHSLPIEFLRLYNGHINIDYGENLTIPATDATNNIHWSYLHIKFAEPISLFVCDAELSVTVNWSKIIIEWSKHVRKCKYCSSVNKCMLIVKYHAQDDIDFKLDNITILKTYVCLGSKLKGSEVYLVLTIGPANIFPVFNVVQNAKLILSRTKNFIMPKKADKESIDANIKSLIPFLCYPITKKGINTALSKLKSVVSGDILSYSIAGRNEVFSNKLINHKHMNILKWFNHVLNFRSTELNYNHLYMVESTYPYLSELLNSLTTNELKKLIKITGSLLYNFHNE
# recombinant RSV complex, sequence (P03421 whole entry, further chain): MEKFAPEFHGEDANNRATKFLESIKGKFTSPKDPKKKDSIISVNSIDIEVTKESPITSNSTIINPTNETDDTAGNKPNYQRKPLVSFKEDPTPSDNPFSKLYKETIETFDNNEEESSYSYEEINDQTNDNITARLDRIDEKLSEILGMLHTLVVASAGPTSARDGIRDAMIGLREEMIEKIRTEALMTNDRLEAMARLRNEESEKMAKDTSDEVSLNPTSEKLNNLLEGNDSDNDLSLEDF
Compound,IC50 (recombinant RSV complex),CC50 at 5 days [1],EC50 [2]
CC1(N)COc2c1cc(C(O)(CNC(=O)c1ccc(OC3CC3)c(OCCO)c1)C(F)(F)F)nc2-c1ccc(F)cc1 (centres unmarked) [Compound 35],< 1 µM,–,–
COc1cc(C(=O)NCC(O)(c2cc(C3(C)CCNC3)cc(-c3ccc(F)cc3)n2)C(F)(F)F)ccc1OCCO (centres unmarked) [Compound 116],< 1 µM,10 to 100 µM,–
"COc1cc(C(=O)NC[C@](O)(c2cc3c(c(-c4ccc(F)cc4)n2)NC[C@]3(C)N)C(F)(F)F)ccc1OCCO (single isomer, unassigned) [Compound 53]",< 1 µM,–,–
COc1cc(C(=O)NC[C@@](O)(c2cc3c(c(-c4ccc(F)cc4)n2)OC[C@@]3(C)N)C(F)(F)F)cc2ccn(CCO)c12 [Compound 89],< 1 µM,–,–
COc1cc(C(=O)NCC(O)(c2nc(-c3ccc(F)cc3)n3ccccc23)C(F)(F)F)ccc1OCCO (centres unmarked) [Compound 137],< 1 µM,–,–
COc1cc(C(=O)NCC(O)(c2nc(-c3ccc(F)cc3)c3ccccn23)C(F)(F)F)ccc1OCCO (centres unmarked) [Compound 54],< 50 µM,–,–
COc1nc(C(=O)NC[C@@](O)(c2cc3c(c(-c4ccc(F)cc4)n2)NC[C@@]3(C)N)C(F)(F)F)cc2c1NC(=O)C2 [Compound 99],< 1 µM,–,–
COc1cc(C(=O)NCC(O)(c2cc3c(c(-c4ccccc4)n2)OCC3(C)N)C(F)(F)F)ccc1OCCO (centres unmarked) [Compound 27],< 1 µM,10 to 100 µM,–
CC(C)(N)c1cc(-c2ccc(F)cc2)nc([C@](O)(CNC(=O)c2ccc(OCCO)c(OC3CC3)c2)C(F)(F)F)c1 [Compound 56],< 1 µM,–,–
COc1nc(C(=O)NCC(O)(c2cc3c(c(-c4ccc(F)cc4)n2)OCC3(C)N)C(F)(F)F)cc2oc(=O)[nH]c12 (centres unmarked) [Compound 48],< 50 µM,10 to 100 µM,–
COc1cc(C(=O)NCC(O)(c2cc3c(c(-c4ccc(F)cc4)n2)OC[C@@]3(C)N)C(F)(F)F)cc2c1OC(=O)NC2 (some centres unmarked) [Compound 17],< 1 µM,–,–
COc1cc(C(=O)NCC(O)(c2cc3c(c(-c4ccc(F)cc4)n2)OCC32CCN2)C(F)(F)F)ccc1OCCO (centres unmarked) [Compound 109],< 1 µM,10 to 100 µM,–
COc1cc(C(=O)NCC(O)(c2cc3c(c(-c4ccc(F)cc4)n2)OCC3(C)N)C(F)(F)F)cc2c1NC(=O)C2 (centres unmarked) [Compound 9],< 1 µM,–,–
COc1cc(C(=O)NC[C@@](O)(c2cc3c(c(-c4ccc(F)cc4)n2)NCC[C@]3(C)N)C(F)(F)F)ccc1OC[C@@H](C)O [Compound 100],< 50 µM,–,–
CC1(N)COc2c1cc(C(O)(CNC(=O)c1ccc3c(c1)OCCN3CCO)C(F)(F)F)nc2-c1ccc(F)cc1 (centres unmarked) [Compound 33],< 1 µM,–,< 1 µM
CC1(N)COc2c1cc(C(O)(CNC(=O)c1ccc(OC3CC3)c(OC3CC3)c1)C(F)(F)F)nc2-c1ccc(F)cc1 (centres unmarked) [Compound 25],< 1 µM,10 to 100 µM,–
COc1cc(C(=O)NCC(O)(c2cn(C(C)(C)CN)cc(-c3ccc(F)cc3)c2=O)C(F)(F)F)ccc1OCCO (centres unmarked) [Compound 78],< 50 µM,–,–
